Measurements as given in EP1585727B1, “INDOLES USEFUL IN THE TREATMENT OF ANDROGEN-RECEPTOR RELATED DISEASES” (priority 2002, dated 2004).
Where a name gives a salt, the structure may show the parent alone.

target: T1, human androgen receptor (Homo sapiens, UniProt P10275); experiment: Androgen receptor transactivation assay, antiandrogenic activity: inhibition of transactivation in the presence of 1 nM DHT (CHO-AR-pMMTV-LUC cells; Table 4); type: cell-based; conditions: antiandrogenic activity, in the presence of 1 nM DHT; read-out: ant EC50
T1 construct: expressed in transfected cells; host or cells: Chinese hamster ovary (CHO) cells, cell line CHO-AR-pMMTV-LUC 1G12-A5-CA
T1 sequence (P10275 1-920): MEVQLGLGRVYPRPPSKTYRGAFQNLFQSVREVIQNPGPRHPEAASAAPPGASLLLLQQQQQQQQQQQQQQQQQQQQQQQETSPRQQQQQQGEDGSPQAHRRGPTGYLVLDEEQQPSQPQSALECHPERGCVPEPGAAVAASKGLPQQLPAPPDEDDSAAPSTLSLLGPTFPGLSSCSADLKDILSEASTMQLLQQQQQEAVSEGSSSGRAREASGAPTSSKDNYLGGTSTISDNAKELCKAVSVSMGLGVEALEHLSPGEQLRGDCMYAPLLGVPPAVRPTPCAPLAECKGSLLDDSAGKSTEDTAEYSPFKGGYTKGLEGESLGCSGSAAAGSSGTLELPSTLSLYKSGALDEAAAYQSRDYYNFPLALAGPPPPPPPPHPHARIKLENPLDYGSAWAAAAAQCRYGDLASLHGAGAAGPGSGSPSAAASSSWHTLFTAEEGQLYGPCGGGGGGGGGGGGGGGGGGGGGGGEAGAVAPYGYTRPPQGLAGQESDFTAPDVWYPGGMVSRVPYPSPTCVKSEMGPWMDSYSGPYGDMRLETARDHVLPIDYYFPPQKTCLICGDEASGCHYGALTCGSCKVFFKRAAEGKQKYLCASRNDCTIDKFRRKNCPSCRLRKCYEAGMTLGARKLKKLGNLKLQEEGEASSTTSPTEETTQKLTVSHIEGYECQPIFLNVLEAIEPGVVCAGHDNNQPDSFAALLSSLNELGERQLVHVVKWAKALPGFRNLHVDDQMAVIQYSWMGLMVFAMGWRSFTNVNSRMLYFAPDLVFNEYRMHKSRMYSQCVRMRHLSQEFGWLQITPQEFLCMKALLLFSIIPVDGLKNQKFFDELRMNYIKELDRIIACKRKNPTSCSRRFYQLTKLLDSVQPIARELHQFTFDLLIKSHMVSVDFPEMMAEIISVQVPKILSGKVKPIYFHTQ
Experimental: Compounds were tested for their Androgen Receptor activity in a transactivation assay and in a binding assay.
The (anti-)androgenic activity of test compounds (EC50 and intrinsic activity) was determined in an in vitro bioassay of Chinese hamster ovary (CHO) cells stably transfected with the human androgen receptor expression plasmid and a reporter plasmid in which the MMTV-promoter is linked to the luciferase reporter gene. The cell-line CHO-AR-pMMTV-LUC 1G12-AS-CA is described in Schoonen et al. (2000), Journal of Steroid Biochemistry and Molecular Biology 74(4):213-222. The antiandrogenic activity of a test compound was determined by the inhibition of the transactivation via the androgen receptor of the enzyme luciferase in the presence of 1 nM DHT (5 α-dihydrotestosterone, 17β-hydroxy-5α-androstan-3-one). Intrinsic activity of antiandrogenic activity was determined in the presence of the reference antiandrogen 2-Hydroxy-2-methyl-N-(4-nitro-3-trifluoromethyl-phenyl)-propionamide (Hydroxyflutamide), and set at 100%. For androgenic activity, maximal intrinsic activity in the presence of 100 nM DHT was set at 100%. Table 4 Androgen receptor activity

Row | SMILES | EC50 [µM]
1 | COc1ccc2c(Sc3ccccc3[N+](=O)[O-])cn(Cc3c(C)noc3C)c2c1 [Compound 80] | > 10
2 | O=[N+]([O-])c1ccccc1Sc1cn(Cc2cc(F)cc(F)c2)c2cc(O)ccc12 [Compound 61, 1-(3,5-Difluoro-benzyl)-3-(2-nitro-phenylsulfanyl)-1H-indol-6-ol] | > 10
3 | CC(C)NC(=O)c1ccc2c(Sc3ccccc3[N+](=O)[O-])cn(Cc3cc(F)cc(F)c3)c2c1 [Compound 46] | > 10

same assay, conditions: in the presence of 1 nM DHT; intrinsic activity relative to reference antiandrogen Hydroxyflutamide (set at 100%); read-out: ant efficacy

Row | SMILES | Emax [%]
4 | COc1ccc2c(Sc3ccccc3[N+](=O)[O-])cn(Cc3c(C)noc3C)c2c1 [Compound 80] | 20 to 50
5 | O=[N+]([O-])c1ccccc1Sc1cn(Cc2cc(F)cc(F)c2)c2ccc(F)cc12 [Compound 53] | < 20
6 | COc1ccc2c(Sc3ccccc3[N+](=O)[O-])cn(Cc3cccnc3)c2c1 [Compound 75] | < 20
7 | Cc1cccc2c1c(Sc1ccccc1[N+](=O)[O-])cn2Cc1cc(F)cc(F)c1 [Compound 55] | < 20
8 | COc1ccc2c(Sc3ccccc3[N+](=O)[O-])cn(Cc3ccc(Cl)s3)c2c1 [Compound 88] | < 20
9 | COc1ccc2c(Sc3ccccc3[N+](=O)[O-])cn(Cc3cc(C)on3)c2c1 [Compound 13] | < 20
10 | O=C(Nc1ccc2c(Sc3ccccc3[N+](=O)[O-])cn(Cc3cc(F)cc(F)c3)c2c1)C(F)(F)F [Compound 59, N-[1-(3,5-Difluoro-benzyl)-3-(2-nitro-phenylsulfanyl)-1H-indol-6-yl]-2,2,2-trifluoroacetamide] | < 20
11 | COc1ccc2c(Sc3ccccc3[N+](=O)[O-])cn(Cc3ccccc3F)c2c1 [Compound 5] | < 20
12 | CCNC(=O)c1ccc2c(Sc3ccccc3[N+](=O)[O-])cn(Cc3cc(F)cc(F)c3)c2c1 [Compound 45] | < 20
13 | COc1ccc2c(Sc3ccccc3[N+](=O)[O-])cn(Cc3cc(F)ccc3F)c2c1 [Compound 1] | < 20
14 | COc1ccc2c(Sc3ccccc3[N+](=O)[O-])cn(Cc3cccc(C#N)c3)c2c1 [Compound 68] | < 20
15 | O=C(c1ccc2c(Sc3ccccc3[N+](=O)[O-])cn(Cc3cc(F)cc(F)c3)c2c1)N1CCOCC1 [Compound 28] | < 20
16 | COc1ccc2c(Sc3ccccc3[N+](=O)[O-])cn(Cc3cccc(C)c3F)c2c1 [Compound 2] | < 20
17 | O=C(NCCO)c1ccc2c(Sc3ccccc3[N+](=O)[O-])cn(Cc3cc(F)cc(F)c3)c2c1 [Compound 37] | < 20
18 | NC(=O)c1ccc2c(Sc3ccccc3[N+](=O)[O-])cn(Cc3cc(F)cc(F)c3)c2c1 [Compound 33, 1-(3,5-Difluoro-benzyl)-3-(2-nitro-phenylsulfanyl)-1H-indole-6-carboxylic acid amide] | < 20
19 | O=C(O)c1ccc2c(Sc3ccccc3[N+](=O)[O-])cn(Cc3cc(F)cc(F)c3)c2c1 [Compound 30, 1-(3,5-Difluoro-benzyl)-3-(2-nitro-phenylsulfanyl)-1H-indole-6-carboxylic acid] | < 20
20 | O=[N+]([O-])c1ccccc1Sc1cn(Cc2cc(F)cc(F)c2)c2cc(Cl)ccc12 [Compound 25] | < 20
21 | O=[N+]([O-])c1ccccc1Sc1cn(Cc2cc(F)cc(F)c2)c2cc(O)ccc12 [Compound 61, 1-(3,5-Difluoro-benzyl)-3-(2-nitro-phenylsulfanyl)-1H-indol-6-ol] | < 20
22 | CN1CCN(C(=O)c2ccc3c(Sc4ccccc4[N+](=O)[O-])cn(Cc4cc(F)cc(F)c4)c3c2)CC1 [Compound 29] | < 20
23 | CNC(=O)c1ccccc1Sc1cn(Cc2cc(F)cc(F)c2)c2cc(OC)ccc12 [Compound 17, 2-[1-(3,5-Difluoro-benzyl)-6-methoxy-1H-indol-3-ylsulfanyl]-N-methyl-benzamide] | 50 to 80

Row | SMILES | Emax [%]
24 | COc1ccc2c(Sc3ccccc3[N+](=O)[O-])cn(Cc3cccc(F)c3)c2c1 [Compound 71] | < 20
25 | COc1ccc2c(Sc3ccccc3[N+](=O)[O-])cn(Cc3ccc(F)cc3)c2c1 [Compound 83] | < 20
26 | COc1ccc2c(Sc3ccccc3[N+](=O)[O-])cn(Cc3cc(F)cc(F)c3)c2c1 [Compound 63, 1-(3,5-Difluoro-benzyl)-6-methoxy-3-(2-nitro-phenylsulfanyl)-1H-indole] | < 20
27 | COc1ccc2c(Sc3ccccc3[N+](=O)[O-])cn(Cc3ccccn3)c2c1 [Compound 10, 6-Methoxy-3-(2-nitro-phenylsulfanyl)-1-pyridin-2 ylmethyl-1H-indole monohydrochloride] | < 20
28 | O=C(NC1CC1)c1ccc2c(Sc3ccccc3[N+](=O)[O-])cn(Cc3cc(F)cc(F)c3)c2c1 [Compound 44] | < 20
29 | O=[N+]([O-])c1ccccc1Sc1cn(Cc2cc(F)cc(F)c2)c2cccc(Cl)c12 [Compound 54] | < 20
30 | COc1ccc2c(Sc3ccccc3[N+](=O)[O-])cn(Cc3ccccc3C)c2c1 [Compound 7] | < 20
31 | O=C(NCc1cccnc1)c1ccc2c(Sc3ccccc3[N+](=O)[O-])cn(Cc3cc(F)cc(F)c3)c2c1 [Compound 35] | < 20
32 | COc1ccc2c(Sc3ccccc3[N+](=O)[O-])cn(Cc3ccc(C#N)cc3)c2c1 [Compound 82] | < 20
33 | O=[N+]([O-])c1ccccc1Sc1cn(Cc2cc(F)cc(F)c2)c2cc(C(F)(F)F)ccc12 [Compound 23] | < 20
34 | COc1ccc2c(Sc3ccccc3[N+](=O)[O-])cn(Cc3ccccc3C(F)(F)F)c2c1 [Compound 12] | < 20
35 | COc1ccc2c(Sc3ccccc3[N+](=O)[O-])cn(Cc3cccc(C(F)(F)F)c3)c2c1 [Compound 78] | < 20
36 | COC(=O)c1ccc2c(Sc3ccccc3[N+](=O)[O-])cn(Cc3cc(F)cc(F)c3)c2c1 [Compound 31, 1-(3,5-Difluoro-benzyl)-3-(2-nitro-phenylsulfanyl)-1H-indole-6-carboxylic acid methyl ester] | < 20
37 | CN(C)C(=O)c1ccc2c(Sc3ccccc3[N+](=O)[O-])cn(Cc3cc(F)cc(F)c3)c2c1 [Compound 49] | < 20
38 | COCCNC(=O)c1ccc2c(Sc3ccccc3[N+](=O)[O-])cn(Cc3cc(F)cc(F)c3)c2c1 [Compound 38] | < 20
39 | COc1ccc2c(Sc3ccccc3[N+](=O)[O-])cn(Cc3cccc(C)c3)c2c1 [Compound 73] | < 20
40 | O=[N+]([O-])c1ccccc1Sc1cn(Cc2cc(F)cc(F)c2)c2cc(CO)ccc12 [Compound 24] | < 20
41 | COc1ccc2c(Sc3ccccc3[N+](=O)[O-])cn(Cc3ccc(C)cc3)c2c1 [Compound 85] | 20 to 50
42 | N#Cc1ccc2c(Sc3ccccc3[N+](=O)[O-])cn(Cc3cc(F)cc(F)c3)c2c1 [Compound 26, 1-(3,5-Difluoro-benzyl)-3-(2-nitro-phenylsulfanyl)-1H-indole-6-carbonitrile] | < 20
43 | COc1ccc2c(Sc3ccccc3[N+](=O)[O-])cn(Cc3cc(F)ccc3C(F)(F)F)c2c1 [Compound 70] | < 20

same assay, conditions: read-out: ant efficacy, in the presence of 1 nM DHT; intrinsic activity relative to reference antiandrogen Hydroxyflutamide (set at 100%)

Row | SMILES | Emax [%]
44 | COc1ccc2c(Sc3ccccc3[N+](=O)[O-])cn(Cc3cccc([N+](=O)[O-])c3)c2c1 [Compound 74] | < 20
45 | COc1ccc2c(Sc3ccccc3[N+](=O)[O-])cn(Cc3ccccc3[N+](=O)[O-])c2c1 [Compound 8] | < 20
46 | COc1ccc2c(Sc3ccccc3[N+](=O)[O-])cn(CC3CCCCO3)c2c1 (stereo not shown) [Compound 11] | < 20
47 | O=[N+]([O-])c1ccc2c(Sc3ccccc3[N+](=O)[O-])cn(Cc3cc(F)cc(F)c3)c2c1 [Compound 60] | < 20
48 | CCCNC(=O)c1ccc2c(Sc3ccccc3[N+](=O)[O-])cn(Cc3cc(F)cc(F)c3)c2c1 [Compound 48] | 20 to 50
49 | CC(C)NC(=O)c1ccc2c(Sc3ccccc3[N+](=O)[O-])cn(Cc3cc(F)cc(F)c3)c2c1 [Compound 46] | 20 to 50
